Assay results as given in patent US20180148418A1, “AMIDO-SUBSTITUTED CYCLOHEXANE DERIVATIVES” (Bayer Pharma Aktiengesellschaft, priority 2015, published 2018).

Experiments:
[1] = system: HEK293 cells cotransfected with the FOP control vector; assay: HEK293 FOP assay (control reporter with non-functional TCF elements); type: cell-based; conditions: Homo sapiens, 16 hours
Outline: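 Compound series from 50 μM down to 15 nM, prediluted in DMSO then 50-fold into CAFTY buffer (pH 7.4, 2 mM Ca2+, 0.01% BSA), tested alongside TOP cells on a Geneticin-selected HEK293 FOP line whose TCF elements are replaced by a random sequence; recombinant human Wnt-3a applied at 2500-5 ng/ml.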

TNKS2 = target: T1, TNKS2 (Homo sapiens, UniProt Q9H2K2); assay: TNKS2 Assay B (auto-parsylation, [3H]-NAD+ SPA); type: biochemical; conditions: 6 nM TNKS2, auto-parsylation, over night at room temperature
T1 construct: purchased BPS Bioscience, San Diego, USA 80572 (TNKS2 Histone Ribosylation Assay Kit)
T1 sequence (Q9H2K2 1-1166): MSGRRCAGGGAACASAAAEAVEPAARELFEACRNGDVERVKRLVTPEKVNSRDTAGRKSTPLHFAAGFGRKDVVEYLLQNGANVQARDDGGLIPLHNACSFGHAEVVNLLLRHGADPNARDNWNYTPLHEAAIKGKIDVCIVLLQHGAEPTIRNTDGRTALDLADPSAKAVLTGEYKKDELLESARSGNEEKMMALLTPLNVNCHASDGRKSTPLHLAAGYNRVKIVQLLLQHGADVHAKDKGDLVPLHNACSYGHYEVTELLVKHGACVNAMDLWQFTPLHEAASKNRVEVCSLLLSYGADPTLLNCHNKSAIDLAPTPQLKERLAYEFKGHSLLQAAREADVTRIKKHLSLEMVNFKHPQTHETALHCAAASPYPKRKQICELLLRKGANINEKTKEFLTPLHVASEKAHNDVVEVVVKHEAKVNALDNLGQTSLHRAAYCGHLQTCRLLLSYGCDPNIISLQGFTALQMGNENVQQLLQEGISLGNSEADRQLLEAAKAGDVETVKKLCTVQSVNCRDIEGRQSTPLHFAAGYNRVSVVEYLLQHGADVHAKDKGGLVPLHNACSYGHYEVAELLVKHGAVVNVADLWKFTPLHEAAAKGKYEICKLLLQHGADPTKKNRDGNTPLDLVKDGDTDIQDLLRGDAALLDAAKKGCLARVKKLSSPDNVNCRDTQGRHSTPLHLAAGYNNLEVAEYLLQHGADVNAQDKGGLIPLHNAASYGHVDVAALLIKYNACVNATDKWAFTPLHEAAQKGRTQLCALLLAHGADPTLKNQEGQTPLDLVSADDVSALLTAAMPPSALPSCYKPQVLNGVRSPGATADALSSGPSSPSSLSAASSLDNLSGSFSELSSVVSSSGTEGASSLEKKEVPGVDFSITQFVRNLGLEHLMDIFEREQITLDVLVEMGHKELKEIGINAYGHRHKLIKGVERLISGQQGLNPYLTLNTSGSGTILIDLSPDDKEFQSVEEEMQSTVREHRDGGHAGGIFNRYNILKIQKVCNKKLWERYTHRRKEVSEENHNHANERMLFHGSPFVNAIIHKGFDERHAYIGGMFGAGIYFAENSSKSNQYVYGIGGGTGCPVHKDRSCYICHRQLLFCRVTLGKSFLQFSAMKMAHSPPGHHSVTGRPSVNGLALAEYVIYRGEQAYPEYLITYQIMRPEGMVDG

IC50 (TNKS2) [nM] | Structure (SMILES) | IC50 [1] [nM]
25 | CC(=O)c1cnc2c(C(=O)N[C@H]3CC[C@H](C(=O)Nc4ccc(F)cc4Cl)CC3)cnn2c1C [Example 46, 6-acetyl-N-{trans-4-[(2-chloro-4-fluorophenyl)carbamoyl]cyclohexyl}-7-methylpyrazolo[1,5-a]pyrimidine-3-carboxamide] | ≥ 50000
380 | COCC(C)NC(=O)c1nc[nH]c1C(=O)N[C@H]1CC[C@@]2(CCN(c3cccc(Cl)c3)C2=O)CC1 (stereo partly drawn) [Example 285, N^5-[(trans)-2-(3-chlorophenyl)-1-oxo-2-azaspiro[4.5]dec-8-yl]-N^4-(1-methoxypropan-2-yl)-1H-imidazole-4,5-dicarboxamide] | 16000
590 | CNC(=O)c1ncoc1C(=O)N[C@H]1CC[C@H](C(=O)Nc2ccc(F)cc2Cl)CC1 [Example 29, N^5-{trans-4-[(2-chloro-4-fluorophenyl)carbamoyl]cyclohexyl}-N^4-methyl-1,3-oxazole-4,5-dicarboxamide] | ≥ 50000
420 | O=C(N[C@H]1CC[C@H](C(=O)Nc2ccc(F)cc2Cl)CC1)c1cnc2ccc(Cl)nn12 [Example 47, 6-chloro-N-{trans-4-[(2-chloro-4-fluorophenyl)carbamoyl]cyclohexyl}imidazo[1,2-b]pyridazine-3-carboxamide] | 16000
31 | O=C(N[C@H]1CC[C@H](C(=O)Nc2ccc(F)cc2Cl)CC1)c1cnc2ccc(N3CCCC3)nn12 [Example 51, N-{trans-4-[(2-chloro-4-fluorophenyl)carbamoyl]cyclohexyl}-6-(pyrrolidin-1-yl)imidazo[1,2-b]pyridazine-3-carboxamide] | ≥ 50000
34 | Cc1cnc2c(C(=O)N[C@H]3CC[C@H](C(=O)Nc4ccc(F)cc4Cl)CC3)cnn2c1 [Example 61, N-{trans-4-[(2-chloro-4-fluorophenyl)carbamoyl]cyclohexyl}-6-methylpyrazolo[1,5-a]pyrimidine-3-carboxamide] | ≥ 50000
2 | O=C(N[C@H]1CC[C@@]2(CCN(c3cc(F)c(F)cc3Cl)C2=O)CC1)c1cnc2cccnn12 [Example 298, N-[(trans)-2-(2-chloro-4,5-difluorophenyl)-1-oxo-2-azaspiro[4.5]dec-8-yl]imidazo[1,2-b]pyridazine-3-carboxamide] | ≥ 50000
26 | CNC(=O)c1nc[nH]c1C(=O)N[C@H]1CC[C@H](C(=O)Nc2c(F)cc(F)cc2Br)CC1 [Example 28, N^5-{trans-4-[(6-bromo-2,4-difluorophenyl)carbamoyl]cyclohexyl}-N^4-methyl-1H-imidazole-4,5-dicarboxamide] | ≥ 50000
45 | Cc1cc(N2CCC[C@]3(CC[C@@H](NC(=O)c4cnn5cccnc45)CC3)C2=O)c(Cl)cc1F [Example 300, N-[(trans)-2-(2-chloro-4-fluoro-5-methylphenyl)-1-oxo-2-azaspiro[5.5]undec-9-yl]pyrazolo[1,5-a]pyrimidine-3-carboxamide] | ≥ 500
49 | Cc1cc(NC(=O)[C@H]2CC[C@H](NC(=O)c3[nH]cnc3C(=O)NCC3CCCO3)CC2)c(Cl)cc1F (stereo partly drawn) [Example 64, N^5-{trans-4-[(2-chloro-4-fluoro-5-methylphenyl)carbamoyl]cyclohexyl}-N^4-(tetrahydrofuran-2-ylmethyl)-1H-imidazole-4,5-dicarboxamide] | 27000
280 | COC[C@H](C)NC(=O)c1nc[nH]c1C(=O)N[C@H]1CC[C@H](C(=O)Nc2c(F)cc(F)cc2Cl)CC1 [Example 66, N^5-{trans-4-[(2-chloro-4,6-difluorophenyl)carbamoyl]cyclohexyl}-N^4-[(2S)-1-methoxypropan-2-yl]-1H-imidazole-4,5-dicarboxamide] | ≥ 50000
120 | CNC(=O)c1[nH]cnc1C(=O)N[C@@H]1CC[C@@H](C(=O)Nc2ccc(F)cc2Cl)C[C@@H]1F (racemic) [Example 31, N^4-{(1α,2α,4β)-4-[(2-chloro-4-fluorophenyl)carbamoyl]-2-fluorocyclohexyl}-N^5-methyl-1H-imidazole-4,5-dicarboxamide] | ≥ 50000
26 | O=C(N[C@H]1CC[C@H](C(=O)Nc2ccc(F)cc2Cl)CC1)c1[nH]cnc1C(=O)N1CC(F)(F)C1 [Example 72, N-{trans-4-[(2-chloro-4-fluorophenyl)carbamoyl]cyclohexyl}-4-[(3,3-difluoroazetidin-1-yl)carbonyl]-1H-imidazole-5-carboxamide] | ≥ 50000
74 | O=C(N[C@H]1CC[C@H](C(=O)Nc2ccc(F)cc2Cl)CC1)c1cnn2cccnc12 [Example 43, N-{trans-4-[(2-chloro-4-fluorophenyl)carbamoyl]cyclohexyl}pyrazolo[1,5-a]pyrimidine-3-carboxamide] | ≥ 50000
230 | COC[C@@H](C)NC(=O)c1nc[nH]c1C(=O)N[C@H]1CC[C@H](C(=O)Nc2ccc(F)cc2Cl)CC1 [Example 84, N^5-{trans-4-[(2-chloro-4-fluorophenyl)carbamoyl]cyclohexyl}-N^4-[(2R)-1-methoxypropan-2-yl]-1H-imidazole-4,5-dicarboxamide] | ≥ 50000
66 | O=C(NCC1CCCO1)c1nc[nH]c1C(=O)N[C@H]1CC[C@H](C(=O)Nc2c(F)cc(F)cc2Cl)CC1 (stereo in doubt) [Example 71, N^5-{trans-4-[(2-chloro-4,6-difluorophenyl)carbamoyl]cyclohexyl}-N^4-[(2R)-tetrahydrofuran-2-ylmethyl]-1H-imidazole-4,5-dicarboxamide] | 23000
190 | COC(C)(C)CNC(=O)c1nc[nH]c1C(=O)N[C@H]1CC[C@H](C(=O)Nc2ccc(F)cc2Cl)CC1 [Example 73, N^5-{trans-4-[(2-chloro-4-fluorophenyl)carbamoyl]cyclohexyl}-N^4-(2-methoxy-2-methylpropyl)-1H-imidazole-4,5-dicarboxamide] | 19000
31 | CNC(=O)c1nc[nH]c1C(=O)N[C@H]1CC[C@H](C(=O)Nc2cc(C)c(F)cc2Cl)CC1 [Example 63, N^5-{trans-4-[(2-chloro-4-fluoro-5-methylphenyl)carbamoyl]cyclohexyl}-N^4-methyl-1H-imidazole-4,5-dicarboxamide] | ≥ 50000
130 | O=C(N[C@H]1CC[C@H](C(=O)Nc2ccc(F)cc2Cl)CC1)c1cnc2cccnn12 [Example 45, N-{trans-4-[(2-chloro-4-fluorophenyl)carbamoyl]cyclohexyl}imidazo[1,2-b]pyridazine-3-carboxamide] | ≥ 50000
23 | COC(C)(C)CNC(=O)c1nc[nH]c1C(=O)N[C@H]1CC[C@H](C(=O)Nc2cc(F)c(F)cc2Cl)CC1 [Example 85, N^5-{trans-4-[(2-chloro-4,5-difluorophenyl)carbamoyl]cyclohexyl}-N^4-(2-methoxy-2-methylpropyl)-1H-imidazole-4,5-dicarboxamide] | 24000
100 | CC(C)(O)CNC(=O)c1nc[nH]c1C(=O)N[C@H]1CC[C@H](C(=O)Nc2ccc(F)cc2Cl)CC1 [Example 75, N^5-{trans-4-[(2-chloro-4-fluorophenyl)carbamoyl]cyclohexyl}-N^4-(2-hydroxy-2-methylpropyl)-1H-imidazole-4,5-dicarboxamide] | ≥ 50000
190 | COCC(C)NC(=O)c1nc[nH]c1C(=O)N[C@H]1CC[C@H](C(=O)Nc2c(F)cc(F)cc2Cl)CC1 (stereo partly drawn) [Example 65, N^5-{trans-4-[(2-chloro-4,6-difluorophenyl)carbamoyl]cyclohexyl}-N^4-(1-methoxypropan-2-yl)-1H-imidazole-4,5-dicarboxamide] | ≥ 50000

Structure (SMILES) | IC50 (TNKS2) [nM] | IC50 [1] [nM]
CNC(=O)c1[nH]cnc1C(=O)N[C@@H]1CC[C@@H](C(=O)Nc2ccc(F)cc2Cl)C[C@H]1OC (racemic) [Example 35, N^4-{(1α,2β,4β)-4-[(2-chloro-4-fluorophenyl)carbamoyl]-2-methoxycyclohexyl}-N^5-methyl-1H-imidazole-4,5-dicarboxamide] | > 10000 | ≥ 50000
